From article PMC6201879, “N-substituted phenylbenzamides of the niclosamide chemotype attenuate obesity related changes in high fat diet fed mice” (PLoS ONE, 2018)
Read-outs that look alike come from different tables or passages of the source.

What was measured:
[1] = system: carbonic anhydrase-III (CAIII); assay: Western blot of carbonic anhydrase III in liver of HFD-fed mice; conditions: HFD fed-DIO mice; 10mg/kg for 12 days; vs sham
[2] = Pharmacokinetic profile in Sprague Dawley rats (IV and PO); format: in vivo; conditions: Mean + SD (n = 3)
Experimental: To evaluate the pharmacokinetic profile by oral (PO) and intravenous (IV) administration routes we used 6 to 8-week old Sprague Dawley rats weighing approximately 200-330g (n = 3 per study group). Compounds were administered at 1mg/kg in 5% Cremophor EL and 20% PEG400 in water for IV and 5mg/kg in PBS for PO. All dose formulation was performed at room temperature. Animals were fasted overnight prior to dosing and were re-fed approximately 4 hours after dosing. For PO, 0.2ml of blood was collected pre- and 0.5, 1, 2, 4 8 12 and 24-hours after drug delivery and transferred to EDTA-K2 BD Vacutainer plastic blood collection tubes. IV samples were collected pre-injection and 0.08, 0.25, 0.5, 1, 2, 4, 8, 12, 24-hours post injection. Blood samples were centrifuged at 2,000 g for 5 minutes at 4°C to obtain plasma. Plasma samples were stored at -75±15°C prior to analysis and then thawed and analyzed by LC-MS/MS method and pharmacokinetic calculations were performed using WinNolin (Phoenix, version 6.4). For IV administration: T1/2, C0, AUClast, AUCinf, MRT, Cl, Vss, and number of points for regression were determined. For PO administration: T1/2, Cmax, Tmax, AUCinf, AUClast, F(0-∞) %, and number of points for regression were determined. Data are reported as mean and standard deviation.

[3] = system: Salmonella typhimurium TA1537; conditions: for Mean Revertant Colony Counts TA-1537 SP9+: with S9; for Mean Revertant Colony Counts TA-1537 S9-: without S9
[4] = system: Salmonella typhimurium (TA98, TA100, TA1535 and TA1537) and Escherichia coli (WP2 uvrA (pKM101)); assay: Ames assay, overall outcome and cytotoxicity across strains
[5] = Body weight changes in HFD-fed mice; format: in vivo, mouse; conditions: 10mg/kg I.P daily for 12 days
Experimental: We next measured body weight changes in HFD-fed animals prior to treatment with niclosamide or phenylbenzamide derivatives and after 12 days, prior to sacrifice. During this time, all animals (including sham) lost some weight.
20-week old animals were treated IP with 500199 at 10 or 25mg/kg by IP over a time-course of 9 days. At day 0, 3, 6 and 9 animals were weighed and tissue samples were collected for standard histological scoring of hepatic steatosis and automated quantitative histomorphometric scoring.

p-AMPK Thr-172 = assay: Western blot of p-AMPK Thr-172 in liver of HFD-fed mice; conditions: HFD fed-DIO mice; 10mg/kg for 12 days; vs sham
[6] = system: fatty acid synthase (FAS); assay: Western blot of fatty acid synthase in liver of HFD-fed mice; conditions: HFD fed-DIO mice; 10mg/kg for 12 days; vs sham
[7] = system: Phosphorylated AMPK (Thr-172); assay: High-throughput phosphorylated AMPK (Thr-172) TR-FRET assay in HepG2 cells; format: cell-based, human; conditions: HepG2 TR-FRET dose response between 0.625 and 10 μM, 4 hours; also Western blot
Experimental: Phosphorylated AMPK (Thr-172) TR-FRET Assay Kit was purchased from CisBio (Bedford MA). HepG2 [HB-8065] cells were trypsinized, harvested and counted using Countess II FL automated cell counter (Thermo Fisher Scientific). Cells were then seeded in Poly-D-Lysine coated 96-well black optical plates at a concentration of 10,000 cells per well in 50μL growth medium. After 24-hours, the media was removed and replaced with 50μL of fresh growth media containing compounds. Five concentrations of each compound were prepared, ranging from 10 to 0.625 μM and applied to columns 2–11 of the cell plate. Control wells contained DMSO (column 1-minimum response control) or 500199 (column 12-maximum response control). The final DMSO concentration was 0.45%. Cells were cultured for 4 hours before cells were lysed in 50μL of lysis buffer for 30 minutes at room temperature according to assays protocol. Following lysis, 16μL of lysate was transferred to white 384 well small volume assay plate and 4μL of antibody dyes were added per assay protocol.
Following overnight incubation, quantitation was performed on a PHERAstar (BMG), using the HTRF protocol with an excitation wavelength of 337nm and emission wavelengths of 665nm and 620nm. The ratio between emission spectra (665/620) was assessed for each well individually and averaged for triplicate samples. Data are presented as mean ratio ± SE. The differences between the control (DMSO) and the compound treated wells were analyzed using two-way ANOVA and Dunnett’s post hoc test. A value of p<0.05 was considered to be significant.
Fig 5 Validation of AMPK pathway activation by phenylbenzamide derivatives in HepG2 cells. A) Cells were seeded at 10,000 cells per well 24 hours prior to treating cells with indicated concentration of compound or DMSO (CTL) for 4 hours. 16μL of cell lysate was incubated with HTRF phospho-AMPK detection reagents and fluorescence emission read at 665nm and 620nm using a PHERAstar platereader. The mean and standard deviation of the HTRF Ratio from three replicate wells is shown. The unstimulated (DMSO) and positive controls lysates are shown in green and red respectively.

In the case of `CC(C)(C)c1cc(C(=O)Nc2ccc(C(=O)O)cc2Cl)c(O)c(C(C)(C)C)c1` [Compound 600453, 3-Chloro-4-[(3,5-di-tert-butyl-2-hydroxybenzene)amido]benzoic acid], the “CAIII protein levels in liver” value [1] is reported as “reduced”, the “AUC _%Extrap_obs (IV)” value ([2]; IV 1 mg/kg) is reported as 0.50 +/-0.114% and the AUCl ast/D (IV) ([2]; IV 1 mg/kg) is reported as 5400 ± 683 ng·kg·h/mL/mg. The “V ss_obs” value ([2]; IV 1 mg/kg) was 0.60 ± 0.076 L/kg, the “AUC _%Extrap_obs (PO)” value ([2]; PO 5 mg/kg in PBS) was 2.22 +/- 1.36% and the AUC last / D (PO) ([2]; PO 5 mg/kg in PBS) was 3390 ± 551 ng·kg·h/mL/mg. The “T 1/2 (PO)” value ([2]; PO 5 mg/kg in PBS, 5 mg/kg) was 3.91 ± 0.75 h, the “F (oral bioavailability)” value ([2]; PO 5 mg/kg vs IV 1 mg/kg) was 63.91 +/- 10.5% and the half-life ([2]; Sprague Dawley, rat, plasma, iv, 1 mg/kg, IV 1 mg/kg, read-out: T 1/2 (IV) (converted)) was 221 ± 7.8 min. The Cmax ([2]; Sprague Dawley, rat, plasma, po, 5 mg/kg, PO 5 mg/kg in PBS) was 2050 ± 558 ng/mL, the half-life ([2]; Sprague Dawley, rat, plasma, po, 5 mg/kg, PO 5 mg/kg in PBS, read-out: T 1/2 (PO) (converted)) was 234 min and the bioavailability ([2]; Sprague Dawley, rat, plasma, po, 5 mg/kg, PO 5 mg/kg vs IV 1 mg/kg, read-out: F (oral bioavailability)) was 64%. The C0 ([2]; rat, plasma, IV 1 mg/kg) was 2816 ± 7.02 ng/mL, the AUC(0-inf) ([2]; rat, plasma, IV 1 mg/kg, read-out: AUC Inf (IV)) was 5420 ± 689 ng·h/mL and the AUC(0-t) ([2]; rat, plasma, IV 1 mg/kg, read-out: AUC last (IV)) was 5400 ± 683 ng·h/mL. The clearance ([2]; rat, plasma, IV 1 mg/kg, read-out: Cl_obs) was 3.11 ± 0.42 mL/min/kg, the MRT inf ([2]; rat, plasma, IV 1 mg/kg, read-out: MRT Inf_obs (IV)) was 3.22 ± 0.32 h and the Tmax ([2]; rat, plasma, PO 5 mg/kg in PBS) was 4 h. It also gave an AUC(0-inf) ([2]; rat, plasma, PO 5 mg/kg in PBS, read-out: AUC Inf (PO)) of 17300 ± 2850 ng·h/mL, an AUC(0-t) ([2]; rat, plasma, PO 5 mg/kg in PBS, read-out: AUC last (PO)) of 16900 ± 2750 ng·h/mL and an MRT inf ([2]; rat, plasma, PO 5 mg/kg in PBS, read-out: MRT Inf_obs (PO)) of 7.4 ± 0.44 h. The “Mean Revertant Colony Counts TA-1537 SP9+” value ([3]; 1.5 ug/Well) was 2.3, the “Mean Revertant Colony Counts TA-1537 S9-” value ([3]; 1.5 ug/Well) was 0.7 and the “Mean Revertant Colony Counts TA-1537 SP9+” value ([3]; 4 ug/Well) was 3.3. The “Mean Revertant Colony Counts TA-1537 S9-” value ([3]; 4 ug/Well) was 1.3, the “Mean Revertant Colony Counts TA-1537 SP9+” value ([3]; 10 ug/Well) was 1.7 and the “Mean Revertant Colony Counts TA-1537 S9-” value ([3]; 10 ug/Well) was 2.3. For the same compound, the “Mean Revertant Colony Counts TA-1537 SP9+” value ([3]; 25 ug/Well) was 1.7, the “Mean Revertant Colony Counts TA-1537 S9-” value ([3]; 25 ug/Well) was 1.3 and the “Mean Revertant Colony Counts TA-1537 SP9+” value ([3]; 64 ug/Well) was 1.0. For the same compound, the “Mean Revertant Colony Counts TA-1537 S9-” value ([3]; 64 ug/Well) was 0.3, the “Mean Revertant Colony Counts TA-1537 SP9+” value ([3]; 160 ug/Well) was 3.3 and the “Mean Revertant Colony Counts TA-1537 S9-” value ([3]; 160 ug/Well) was 0.0. For the same compound, the “Mean Revertant Colony Counts TA-1537 SP9+” value ([3]; 400 ug/Well) was 0.7, the “Mean Revertant Colony Counts TA-1537 S9-” value ([3]; 400 ug/Well) was 1.0 and the “Mean Revertant Colony Counts TA-1537 SP9+” value ([3]; 1000 ug/Well) was 3.7. The “Mean Revertant Colony Counts TA-1537 S9-” value ([3]; 1000 ug/Well) was 0.3, the “fold increase in the mean number of revertant colonies, TA1537” value ([3]; any concentration tested, vs negative control) was under 3 fold and the “Ames assay outcome (mutagenicity)” value [4] was “negative”. For the same compound, the “cytotoxicity in the Ames assay” value ([4]; relative to the negative control, presence and absence of S9 mix) was “no cytotoxicity was exhibited at any concentration”, the “body weight change vs sham” value [5] was “lost significantly more weight” and the “phosphorylation of AMPK at Thr-172 in liver” value (p-AMPK Thr-172) was “stimulated phosphorylation of AMPK at Thr-172”. For the same compound, the “FAS protein levels in liver” value [6] was “reduced” and the “phosphorylation of AMPK (Figs 5 and 4D)” value [7] was “stimulated phosphorylation of AMPK”.
